Laboratory results reported in patent publication US20110098255A1, “COMBINATION OF A PARP INHIBITOR AND AN AKT KINASE ACTIVATING COMPOUND” (priority 2008, published 2011).

How the values were obtained:
[1] = tested on: cuprisone induced changes in the central nervous system of C57BL/6 mice (corpus callosum demyelinization); test: Cuprizone induced demyelinization determined with MRI (CC/control tube intensity); assay type: in vivo; details: cuprizone-treated mice, after 5 weeks of treatment, i.p.
Protocol: (§1) During the experiment C57BL/6 mice were kept in a standard environment, they were given tap water and ground mice feed ad libitum. The mice were taken care of according to ethical requirements relating to treatment of animals.
(§2) According to a previously described method [Journal of Neuroimmunology 92 (1998): 38-49], 7-8 week old C57BL/6 male mice were treated for 6 weeks per os with cuprizone (Sigma, Steinheim, Germany). The mice were divided into 5 groups with 8 mice in each group.
(§3) Oxidation of cuprizone was prevented by giving fresh feed to the mice every day. PARP inhibitors and/or Akt kinase activating agents were placed in physiological saline solution, filtered to sterility, and administered intraperitoneally in the proper dosage. […] Control animals were given i.p. an amount of sterile physiological solution corresponding to their bodymass.
(§4) It is known from the literature (NMR Biomed. 2005 Oct.; 18(6):395-403) that T1 and T2 MRI image intensity correlates with the degradation and regeneration of the myelin sheath in this model. Oedema and hydrocephalus registers as hyperintensity on the T2 image. For quantification of hydrocephalus MRI is more suitable than histology because during fixation and histological processing there is significant shrinkage and volume degradation (Exp. Neurology 118 (1992): 1-6). MRI micro image technique makes it possible to study the above changes in vivo for weeks.
(§5) After three weeks, the mice were placed into the NMR instrument in narcosis every week [5 mg/kg bodymass diazepam (Seduxen) and 90 mg/kg bodymass ketamine (Calypsol, Richter Gedeon Zrt., Budapest) intraperitoneally]. T1 and T2 images were acquired with Varian ^uNITYIINOVA NMR spectrometer from the bulbus olfactorius to the beginning of the spinal cord in transverse sections of 1 mm thickness. Signal intensity of a glass tube with 1 mm internal diameter, which was filled with 9:1 water-glycerin mixture, was used as outer control. The development and size of demyelinization was determined by comparing average signal intensity detected at the area of the corpus callosum with the average intensity of the outer control. Average signal intensity of the corpus callosum (CC) was determined by an expert who was blind to the experiment from the section 1 mm posterior to the bregma by manually marking the region of interest (ROI), i.e. the corpus callosum (CC). Intensity of ROI was normalized to the intensity of the control tube.

[2] = tested on: cuprisone induced changes in the central nervous system of C57BL/6 mice (hydrocephalus); test: Cuprizone induced hydrocephalus determined with MRI (chamber/brain volume ratio); assay type: in vivo; details: cuprizone-treated mice, after 5 weeks of treatment, i.p.
Protocol: as §1, §2, §3, §4, §5
The development and the degree of hydrocephalus were quantified by calculating the chamber/brain volume ratio. The area of the chambers was outlined manually in each section, and the whole volume was calculated as the sum of the areas multiplied with the thickness of the sections (1 mm). The same method was used for the determination of the […].

[3] = tested on: LPS induced septic shock in normal BALB/c mice; details: cited from earlier work
[4] = tested on: MBP induced formation of EAE in PJSJL mice; details: cited from earlier work
[5] = Example 1, doxycycline 1 mg/kg, estriol 0,4 mg/kg bodymass
[6] = Example 2, doxycycline 1 mg/kg, trans-resveratrol 0,4 mg/kg bodymass
[7] = Example 3, 4-HQ 20 mg/kg, trans-resveratrol 0,4 mg/kg bodymass
[8] = Example 4, Carb 2 mg/kg, trans-resveratrol 0.4 mg/kg bodymass

C[C@H]1c2cccc(O)c2C(=O)C2=C(O)[C@]3(O)C(=O)C(C(N)=O)=C(O)[C@@H](N(C)C)[C@@H]3[C@@H](O)[C@@H]21 [doxycycline]
CC/control tube (demyelinization) [1, 5]: 1.1 ± 0.18 | CC/control tube (demyelinization) [1, 6]: 1.2 ± 0.17 | Chamber/brain vol. ratio (hydrocephalus) [2, 5]: 0.128 ± 0.012 | Chamber/brain vol. ratio (hydrocephalus) [2, 6]: 0.117 ± 0.02

CN(C)CC(=O)Nc1ccc2[nH]c(=O)c3ccccc3c2c1.Cl [PJ-34, N-(6-oxo-5 ,6-dihydrophenanthridin-2-yl)-N,N-dimethylacetamide.HCl]
prevention of LPS induced septic shock [3]: successful in preventing LPS induced septic shock | MBP induced formation of EAE [4]: effectively decreased

Oc1ccc(/C=C/c2cc(O)cc(O)c2)cc1 [resveratrol, trans-resveratrol]
CC/control tube (demyelinization) [1, 6]: 1.3 ± 0.09 | CC/control tube (demyelinization) [1, 7]: 1.3 ± 0.09 | CC/control tube (demyelinization) [1, 8]: 1.3 ± 0.09 | Chamber/brain vol. ratio (hydrocephalus) [2, 6]: 0.138 ± 0.017 | Chamber/brain vol. ratio (hydrocephalus) [2, 7]: 0.138 ± 0.017 | Chamber/brain vol. ratio (hydrocephalus) [2, 8]: 0.138 ± 0.017

C[C@]12CC[C@@H]3c4ccc(O)cc4CC[C@H]3[C@@H]1C[C@@H](O)[C@@H]2O [estriol]
CC/control tube (demyelinization) [1, 5]: 1.2 ± 0.13 | Chamber/brain vol. ratio (hydrocephalus) [2, 5]: 0.134 ± 0.02
